Marks after values point to notes of the source that are not given here.
How the values were obtained:
[1] = Cyclic voltammetry of iron(III)–ligand (1:2) systems; assay type: physicochemical; conditions: cL = 1 mM, pH 7.40, 25 °C, 90% (v/v) DMSO/H2O, 0.01 V/s scan rate
Protocol: Cyclic voltammograms for the Fe(III) and Cu(II) complexes were recorded in 90% (v/v) DMSO/water solution containing 1 mM ligand and 0.5 mM FeCl3 or 1 mM CuCl2 using a conventional three-electrode system under nitrogen atmosphere and a PC-Controlled Electrochemical Measurement System (EF 451). The ionic strength was 0.10 M, adjusted by TBAN. Samples were purged for 15 min with Ar before recording the cyclic voltammograms. Platinum electrodes were used as the working and auxiliary electrodes, and Ag/AgCl (3 M KCl) was applied as the reference electrode. The electrochemical potentials were converted into the normal hydrogen electrode (NHE) scale by adding 0.222 V. The instrument was calibrated with an aqueous solution of K3[Fe(CN)6] (E1/2 = +0.386 V vs. NHE). Redox potentials were obtained at different scan rates (5–25 mV/s) in the range of −0.8 to +0.1 V. The dependence of the peak current values of the square root of the scan rates is shown in Figure S5 for the iron and copper complexes of COTI-NMeCy.

SW480/Coti cells = tested on: SW480/Coti cells; set-up: method as in PMID 33190481; conditions: 72 h, MTT; cited from earlier work
SW480/Tria cells = tested on: SW480/Tria cells; set-up: method as in PMID 33190481; conditions: 72 h, MTT; cited from earlier work
[2] = tested on: GLC-4/adr cells (ABCC1-overexpressing); set-up: method as in PMID 33190481; conditions: cited from earlier work
[3] = Parallel artificial membrane permeability assay (PAMPA); assay type: in vitro ADME; conditions: pH 7.4, 25 °C, read-out: Peff
Protocol: The thermodynamic solubility of COTI-NMeCy, COTI-Nme2, COTI-NH2, and COTI-2 was measured for the saturated solutions in water at pH 7.4 (20 mM HEPES buffer) at 25.0 ± 0.1 °C. The concentrations of the compounds were determined by UV-vis spectrophotometry using stock solutions of the compounds with known concentrations dissolved in pure DMSO, and 50% and 1% (v/v) DMSO/buffered aqueous solution for the calibration. The parallel artificial membrane permeability assay (PAMPA) was applied for the ligands with a Corning Gentest pre-coated PAMPA Plate System. Peff values were calculated according to the equation reported by Yu et al..

SW480 cells = assay: Detection of paraptotic vesicles (phase contrast microscopy); assay type: cell-based, human; conditions: 24 h
Protocol: SW480 and SW480/Coti cells were seeded at a density of 2 × 10^4 per well in 24-well plates and left to recover for 24 h. This was followed by drug treatment at the indicated concentration for 24 h. Images were captured with phase contrast using a Nikon eclipse Ti-e fluorescence microscope and a DS Fi1c camera. Cells containing vesicles were counted in ImageJ and plotted in GraphPad Prism as the percentage of all cells.

Structure (SMILES) | E’ vs. NHE, iron(III)–ligand (1:2) systems [1] | IC50 (SW480/Coti cells) [µM] | IC50 (SW480/Tria cells) [µM] | IC50 ([2]; 72 h, MTT) [µM] | Relative Resistance GLC-4/adr ([2]; IC50 of GLC-4/adr divided by IC50 of parental GLC-4) | Papp [3] [×10⁻⁶ cm/s] | cells presenting paraptotic features (SW480 cells; 0.1 µM) [%] | cells presenting paraptotic features (SW480 cells; 1 µM) [%]
S=C(N/N=C1\CCCc2cccnc21)N1CCN(c2ccccn2)CC1 [COTI-2, 4-(pyridine-2-yl)-N-([(8E)-5,6,7,8-tetrahydroquinolin-8-ylidene]amino)piperazine-1-carbothioamide] | +0.11 V | 9.51 ± 3.11 | 0.41 ± 0.16 | 0.48 ± 0.15 | 17.3 * |  |  | 
CN(C)C(=S)NN=C1CCCc2cccnc21 (mixture of isomers) [COTI-NMe2, 2-(6,7-Dihydroquinolin-8(5H)-ylidene)-N^4,N^4-dimethylhydrazine-1-carbothioamide] |  |  |  |  |  | 16 ± 0.1 | 100 | 100
